# Data as given in patent US7235267B1, “Brain cell or nerve cell-protecting agents comprising medicinal ginseng” (priority 1999, dated 2007).
# “Also recorded” adds a separate entry of the source. Like-named read-outs stand apart in the source and are kept apart here.
# What was measured:
# Bcl-xL mRNA = experiment: RT-PCR of Bcl-xL mRNA in cerebral cortex after intravenous ginsenoside Rb1; format: in vivo, rat; conditions: intravenous 60 μg/day; 4th and 6th hour after MCA permanent occlusion; vs sham and saline
# Protocol: The present inventors investigated whether or not intravenous administration of low doses of ginsenoside Rb1 increases expression of Bcl-xL mRNA in brain tissues. For this purpose, for example, SH-SP rats (body weight 250-300 g), at the age of 12 weeks, were used. Immediately after permanent occlusion of the MCA in SH-SP rats under inhalation anesthesia, ginsenoside Rb1 dissolved in physiological saline was infused once intravenously (60 μg), and subsequently ginsenoside Rb1 was intravenously infused continuously at the dose of 60 μg/day. Control animals with MCA permanent occlusion and sham-operated animals received the same amount of physiological saline after MCA permanent occlusion.
# Group 2 consists of animals with the same experimental conditions. Sham indicates sham-operated animals; Rb1(−) indicates animals with cerebral infarction administered with physiological saline; and Rb1(+) indicates animals with cerebral infarction administered intravenously with ginsenoside Rb1. At the 4th hour or the 6th hour after the sham operation and MCA permanent occlusion, animals were anesthetized with chloral hydrate, and the left cerebral cortex (i.e. the cerebral cortex on the side of MCA permanent occlusion) was dissected out and total RNA was prepared for RT-PCR. The mRNA of β-actin was used as the internal standard. […]
# ischemic brain = experiment: Oral administration of ginsenoside Rb1 per se, neuroprotective action; format: in vivo
# [1] = Cerebral blood flow, brain temperature, blood pressure; conditions: intravenous infusion 60 μg/day
# [2] = system: SH-SP rats with MCA permanent occlusion; conditions: cited from earlier work
# [3] = low concentrations or low doses; cited from earlier work
# [4] = system: SH-SP rats with MCA permanent occlusion; conditions: cited from earlier work; remark: listed apart in the source
# Bcl-xL = Bcl-xL expression in primary cultured oligodendrocytes (RT-PCR, immunoblotting); format: cell-based, rat
# Protocol: In order to investigate whether ginsenoside Rb1 enhances the expression of Bcl-xL in oligodendrocytes or not, for example, ginsenoside Rb1 at the concentrations from 1 fg/ml to 10 pg/ml was added to the primary cultured rat oligodendrocytes. After culture for 6 hours, total RNA was extracted and Bcl-xL mRNA was assayed by RT-PCR. β-actin mRNA was used as an internal standard of RT-PCR. Further, a part of oligodendrocytes was used as a sample for SDS electrophoresis after treatment with ginsenoside Rb1, and anti-apoptotic factor Bcl-xL in the culture well was examined by immunoblotting (Western blotting). Oligodendrocytes were isolated from the mixed brain cell culture by using the forebrain of newborn rats.
# In order to investigate whether ginsenoside Rb1 enhances the expression of Bcl-xL in oligodendrocytes or not, for example, ginsenoside Rb1 at the concentration from 1 fg/ml to 10 pg/ml was added to the primary cultured rat oligodendrocytes. After culture for 6 hours, Total RNA was extracted and Bcl-xL mRNA was assayed by RT-PCR. β-actin mRNA was used as an internal standard of RT-PCR. Further, a part of oligodendrocytes was used as a sample for SDS electrophoresis after treating with ginsenoside Rb1, and the amount of anti-apoptotic factor Bcl-xL in the culture well was examined by immunoblotting (Western blotting). The mixed brain cell culture was initiated to isolate oligodendrocytes by using the forebrain of newborn rats.
structure (smiles),measurement,setting,value
CC(C)=CCC[C@](C)(O[C@@H]1O[C@H](CO[C@@H]2O[C@H](CO)[C@@H](O)[C@H](O)[C@H]2O)[C@@H](O)[C@H](O)[C@H]1O)[C@H]1CC[C@]2(C)[C@@H]1[C@H](O)C[C@@H]1[C@@]3(C)CC[C@H](O[C@@H]4O[C@H](CO)[C@@H](O)[C@H](O)[C@H]4O[C@@H]4O[C@H](CO)[C@@H](O)[C@H](O)[C@H]4O)C(C)(C)[C@@H]3CC[C@]12C [ginsenoside Rb1],expressions of Bcl-xL mRNA in the cerebral cortex,Bcl-xL mRNA,obviously increased
same,neuroprotective action / protective action on the ischemic brain,ischemic brain,did not show protective effects; also recorded: did not exhibit neuroprotective action; also recorded: did not exhibit any protective action
same,cerebral blood flow,[1],does not affect
same,cerebral infarction (infarcted area in the cerebral cortex),[2]; intracerebroventricular administration after permanent MCA occlusion,significant reduction
same,secondary lesion (degeneration) of the thalamus,[2]; intravenous 6 or 60 μg/day,significantly inhibits
same,mean ratio of cerebrocortical infarction compared with saline group,[2]; intravenous ginsenoside Rb1 (prior applications),≤ 50%
same,cerebral vessels destroyed after MCA permanent occlusion,[2]; intravenous infusion for 28 days,regenerated and reconstructed
same,cerebral infarct area relative to non-administered group,[2]; repetitive or continuous intravenous 6 μg or 60 μg/day,about ¼
same,volume/size of cerebral infarct lesion relative to saline (non-administered) group,[2]; repetitive or continuous intravenous 6 or 60 μg/day for 28 days after MCA permanent occlusion (prior applications),about ¼
same,reduction of the volume of the cerebral infarct lesions vs control group,[2]; repetitive or continuous intravenous low doses after permanent MCA occlusion,~75%
same,bleeding tendency,[3],does not promote
same,ischemia-induced place navigation disability,[4]; ginsenoside Rb1 intracerebroventricular infusion immediately after permanent MCA occlusion,ameliorated
same,ischemia-induced place navigation disability,[4]; ginsenoside Rb1 repetitive or continuous intravenous 6 μg or 60 μg/day,significantly ameliorated
same,expression of Bcl-xL mRNA in oligodendrocytes,"Bcl-xL; 100 fg/ml, 6 hours, RT-PCR",obviously enhanced
same,concentrations increasing Bcl-xL protein expression in oligodendrocytes,Bcl-xL; FIG. 23,1 to 100 fg/mL
same,Bcl-xL protein in oligodendrocytes,Bcl-xL; immunoblotting after ginsenoside Rb1 addition,increased
